PMC4302236, “Functional profile of a novel modulator of serotonin, dopamine, and glutamate neurotransmission” (Psychopharmacology, 2014)
Where “and” joins values, the source holds several entries; their conditions need not be identical. Equal values may be shown once.

Tests used:
[1] = test system: D-AMPH-induced hyperactivity; assay: Inhibition of D-amphetamine-induced hyperactivity; format: in vivo; conditions: rats, p.o.; D-AMPH 1 mg/kg i.p.; distance traveled over 2 h
Method: Male Sprague–Dawley rats (200–250 g, N=4/treatment group) were habituated to Lucite locomotor activity chambers comprising an AccuScan activity monitoring system (AccuScan Instruments, Inc., Columbus, OH) were maintained in a quiet observation room kept under low light conditions. […] The rats were briefly removed from the activity chambers 60 min later to receive an injection of D-amphetamine hydrochloride (D-AMPH; 1 mg/kg in 1 ml/kg, i.p.). The animals were returned to the activity chambers, and locomotor activity was then recorded for 2 h using system software. Activity was quantitated as distance traveled (cm) over 2 h for each group. Inhibitory activity was calculated as the percent of total activity observed at each dose level of each drug versus animals receiving D-AMPH alone. An ID50 for inhibition of D-AMPH-induced hyperactivity was calculated for each compound.

[2] = test system: striatal dopamine metabolism; assay: Striatal dopamine metabolism (HPLC-EC of DA, DOPAC, HVA); format: in vivo, mice; conditions: for DOPAC/DA, chronic (21 day) dosing, mean / HVA/DA, chronic (21 day) dosing, mean: striatum 2 h after last dose; for DOPAC/DA, acute (2 h) dosing, mean / HVA/DA, acute (2 h) dosing, mean: striatum 2 h after dose
Method: Measurements of tissue dopamine levels were performed at CDC-NIOSH. […] Striatum was rapidly dissected from each mouse brain, weighed, and placed into Eppendorf tubes that were frozen in liquid nitrogen and stored at -80 °C. […] Tissues were homogenized in 100 μl of ice-cold 0.2 M perchloric acid containing 1 μM dihydroxybenzylamine (DHBA) as an internal standard and centrifuged at 10,000×g for 10 min at 4 °C. The supernatant was filtered through a 0.2 μm nitrocellulose membrane, and an aliquot (10 μl) was injected from a temperature-controlled (4 °C) automatic sample injector (Waters 717plus Autosampler) connected to a Waters 515 HPLC pump. Catecholamines were separated on a C18 reverse-phase column ([…]; Waters […] 25 cm×4.6 mm; 5 μm), electrochemically detected (Waters 464 Pulsed Electrochemical Detector; range 10 nA, potential +0.7 V), and analyzed using Millennium software. […] A flow rate of 1 ml/min was used. […] The recovery of each analyte was adjusted with respect to the internal standard and quantified from a standard curve. The levels of dopamine and its metabolites, DOPAC and HVA, were calculated from the AUC values for each (based on microgram per gram (μg/g) tissue wet weight) and expressed as a percent of the saline control.

[3] = test system: muscarinic cholinergic receptors; assay: Binding to muscarinic cholinergic receptors
forelimb catalepsy = conditions: mouse, in vivo
Method: Forelimb catalepsy was measured using the bar grip test. Mice were placed in a Lucite mouse cage outfitted with a 3-mm diameter wooden rod suspended 4 cm from the floor of the cage. During testing, the mouse was allowed to grip the bar firmly with hind legs placed firmly on the floor of the cage. The mouse was required to maintain this posture for at least 10 s for a valid test session. Catalepsy was then quantitated by recording the latency (in seconds) to step both front paws down to the floor of the cage up to a maximum time of 120 s. If the mouse stepped off the bar immediately (less than 10 s), another attempt was made up to a maximum of ten attempts. The longest duration of immobility was recorded if none of the ten attempts were beyond 10 s. Catalepsy was measured for each mouse at 2, 3, 4, and 6 h after drug administration. Mean forelimb catalepsy time (in seconds) was calculated across each group and time point. Data were analyzed using ANOVA with Newman–Keuls post hoc test.

5-HT2A receptor = 5-HT2A receptor (Homo sapiens, UniProt P28223); conditions: read-out: IC50, antagonism of serotonin-induced increase in calcium fluorescence; serotonin 30 nM
Sequence of 5-HT2A receptor (P28223 whole entry): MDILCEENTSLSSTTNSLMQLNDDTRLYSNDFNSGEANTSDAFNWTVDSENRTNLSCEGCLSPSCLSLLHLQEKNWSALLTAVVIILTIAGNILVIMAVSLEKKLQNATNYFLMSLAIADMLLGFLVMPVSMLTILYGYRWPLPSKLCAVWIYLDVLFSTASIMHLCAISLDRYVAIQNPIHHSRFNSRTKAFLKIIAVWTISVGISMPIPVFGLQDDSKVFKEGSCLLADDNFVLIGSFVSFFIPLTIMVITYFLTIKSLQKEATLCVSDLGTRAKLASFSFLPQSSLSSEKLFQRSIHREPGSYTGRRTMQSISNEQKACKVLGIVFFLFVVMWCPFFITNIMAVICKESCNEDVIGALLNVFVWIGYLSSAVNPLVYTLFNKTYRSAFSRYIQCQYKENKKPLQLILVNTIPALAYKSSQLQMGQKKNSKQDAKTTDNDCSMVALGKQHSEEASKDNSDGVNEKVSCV

5-HT2C receptor = target: T1, 5-HT2C receptor (Sus scrofa, UniProt K7GSR7); assay: 5-HT2C receptor binding in pig choroid plexus (3H-methylsergide)
T1 construct: tissue NovaScreen/Caliper/Perkin-Elmer; host or cells: pig choroid plexus
T1 sequence (K7GSR7 1-457): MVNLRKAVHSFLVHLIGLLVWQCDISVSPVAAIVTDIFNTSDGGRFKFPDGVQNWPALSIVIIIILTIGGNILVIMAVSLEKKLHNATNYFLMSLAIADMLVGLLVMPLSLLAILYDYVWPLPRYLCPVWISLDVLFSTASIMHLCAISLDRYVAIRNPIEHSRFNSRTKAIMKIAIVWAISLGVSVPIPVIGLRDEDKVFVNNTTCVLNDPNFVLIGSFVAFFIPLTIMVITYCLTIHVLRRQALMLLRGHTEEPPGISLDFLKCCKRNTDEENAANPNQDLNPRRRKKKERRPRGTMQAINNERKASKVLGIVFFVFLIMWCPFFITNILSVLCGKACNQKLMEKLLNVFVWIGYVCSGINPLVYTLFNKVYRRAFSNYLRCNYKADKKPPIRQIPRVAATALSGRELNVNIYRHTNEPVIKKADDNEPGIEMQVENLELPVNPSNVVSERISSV
Method: Binding activity at a variety of receptor targets, including recombinant human serotonin receptors and rat dopamine D2 and human recombinant dopamine D4 receptors, was measured in vitro using standard radioligand displacement methods (NovaScreen/Caliper/Perkin-Elmer, Hanover, MD), to determine affinity. […] D2 receptor binding was measured at rat recombinant receptors expressed in Chinese hamster ovary (CHO) cells and using ^3H-methylspiperone as a radioligand and in rat striatum using ^3H-sulpiride as a radioligand. […] D4 receptor binding was measured at human recombinant receptor s expressed in CHO cells and using ^3 H-methylspiperone as a radioligand. D1 receptor binding at human recombinant receptor was measured in CHO cells using ^3H-SCH23390 as a radioligand. 5-HT2C receptor binding was measured in pig choroid plexus using ^3 H-methylsergide as a radioligand. Binding to alpha adrenergic receptors in the rat frontal cortex (alpha1A) or rat liver (alpha1B) was measured using ^3H-prazosin as a radioligand. Histamine H1 receptor binding was measured in bovine cere- bellum using ^3H-pyrilamine as a radioligand. […] The affinity constant (Ki) for each receptor subtype or inhibitory concentration 50 (IC50) for inhibition in functional assays was calculated.

5-HT2B receptors = 5-HT2B receptors (Homo sapiens, UniProt P41595); assay: Binding to 5-HT2B receptors
Sequence of 5-HT2B receptors (P41595 whole entry): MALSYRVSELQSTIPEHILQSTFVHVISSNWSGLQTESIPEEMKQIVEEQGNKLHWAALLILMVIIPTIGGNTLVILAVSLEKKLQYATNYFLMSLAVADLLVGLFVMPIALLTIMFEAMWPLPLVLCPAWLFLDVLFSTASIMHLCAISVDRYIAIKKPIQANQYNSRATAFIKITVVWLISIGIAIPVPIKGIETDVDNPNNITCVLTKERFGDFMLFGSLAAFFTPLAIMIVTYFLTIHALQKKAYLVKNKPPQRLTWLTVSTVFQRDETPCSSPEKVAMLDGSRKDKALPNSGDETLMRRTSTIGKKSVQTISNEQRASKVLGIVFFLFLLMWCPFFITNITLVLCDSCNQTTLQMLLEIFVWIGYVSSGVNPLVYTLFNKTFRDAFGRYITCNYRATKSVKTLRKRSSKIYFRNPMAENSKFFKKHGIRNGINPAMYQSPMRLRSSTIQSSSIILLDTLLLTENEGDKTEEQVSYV

[4] = 1 mg/kg p.o. once daily 21 days
[5] = 3 mg/kg p.o. once daily 21 days
[6] = 10 mg/kg p.o. once daily 21 days

CN1CCN2c3c(cccc31)[C@@H]1CN(CCCC(=O)c3ccc(F)cc3)CC[C@@H]12 [ITI-007, 1-(4-fluoro-phenyl)-4-((6bR,10aS)-3-methyl-2,3,6b,9,10,10a-hexahydro-1H,7H-pyrido[3′,4′:4,5]pyrrolo[1,2,3-de]quinoxalin-8-yl)-butan-1-one]
ID50, inhibition of D-AMPH-induced hyperactivity [1]: 0.95 mg/kg and ~ 1.0 mg/kg
DOPAC/DA, chronic (21 day) dosing, mean [2, 4]: 4.69
HVA/DA, chronic (21 day) dosing, mean [2, 4]: 9.44
DOPAC/DA, acute (2 h) dosing, mean ([2]; 1 mg/kg p.o. once): 4.98
HVA/DA, acute (2 h) dosing, mean ([2]; 1 mg/kg p.o. once): 8.06
DOPAC/DA, chronic (21 day) dosing, mean [2, 5]: 4.54
HVA/DA, chronic (21 day) dosing, mean [2, 5]: 7.99
DOPAC/DA, acute (2 h) dosing, mean ([2]; 3 mg/kg p.o. once): 4.57
HVA/DA, acute (2 h) dosing, mean ([2]; 3 mg/kg p.o. once): 7.47
DOPAC/DA, chronic (21 day) dosing, mean [2, 6]: 5.80
HVA/DA, chronic (21 day) dosing, mean [2, 6]: 10.47
DOPAC/DA, acute (2 h) dosing, mean ([2]; 10 mg/kg p.o. once): 6.02
HVA/DA, acute (2 h) dosing, mean ([2]; 10 mg/kg p.o. once): 8.40
Binding to muscarinic cholinergic receptors (e.g., M3 subclasses) [3]: no significant binding
Cataleptogenic activity (forelimb catalepsy): no demonstrable cataleptogenic activity
Forelimb catalepsy, bar grip test (forelimb catalepsy; po, 30 mg/kg): statistically significant increase in forelimb catalepsy
IC50 (5-HT2A receptor): 7 nM
Binding to 5-HT2C receptors (5-HT2C receptor): did not significantly bind
Ki (5-HT2C receptor; radioligand displacement, unit inferred): 173 nM
Binding to 5-HT2B receptors (5-HT2B receptors): did not significantly bind
